Assay [1] has as its system AT6.3 subcutaneous tumors.
In the next assay the test system is 22RV1 xenograft tumors. The note with it: 50 mg/kg daily s.c. The method, then: (§1) CWR22RV1 (n=14) and PC3tumor xenografts (n=20) were grown by injecting 0.1 ml of Hanks Balanced Salt Solution and Matrigel (1:1) (Beckton Dickinson, Franklin Lakes, N.J.) containing 2.5×10^6 cells subcutaneously at each of two locations (right anterior and posterior flank) per athymic mouse. […] Animals were euthanized and tumors harvested for Ki-67 staining. […] Mice were observed daily for distress and experiments were carried out according to approved institutional protocols. Individual tumor volumes were plotted and regression curves were generated using analysis software to determine individual tumor growth rates.

In a further assay the test system is PC3 xenograft tumors. Particulars: 50 mg/kg daily s.c. The protocol: as §1
The next assay relates to 22RV1 cells. In words: In vitro Matrigel invasion assay. Type of assay: cell-based, human. An excerpt:
(§2) Cells reaching the lower chamber were counted according to the manufacturer's protocol. Results were normalized to viable cell mass assayed as described above.

Another assay has as its system 22RV1-GLI cells. The assay can be described thus: In vitro Matrigel invasion assay. Type of assay: cell-based, human.
Description: as §2

A further assay has as its system prostate epithelium. The assay can be described thus: Prostate regeneration in castrated mice. It counts as in vivo, C57B16/J mice. Particulars: castrates. An excerpt: Prostates were collected, weighed, and processed for histology.
Assay [2] concerns AT2.1 subcutaneous tumors. The assay can be described thus: Dunning rat prostate carcinoma xenografts in athymic mice. The note with it: s.c. Type of assay: in vivo.
Assay [3] concerns AT6.3 cells. The assay can be described thus: Quantitative RT-PCR of transcripts. It counts as cell-based, rat. An excerpt:
(§3) Amplification of Hh pathway components was normalized in qRT-PCR experiments to that of endogenous phosphoglycerate kinase in each sample. Oligonucleotide primers used in quantitative reeal-time and conventional amplification of reverse transcribed mRNA (RT-PCR) are shown in Table 4.

The next assay deals with AT2.1-GLI cells. The assay can be described thus: In vitro Matrigel invasion assay. Type of assay: cell-based, rat. The note with it: 3 μM pre-treatment 24 hours.
Description: as §2

Assay [4] concerns AT6.3 cells. In words: In vitro Matrigel invasion assay. The note with it: 3 μM pre-treatment 24 hours, normalized to viable cell mass. It counts as cell-based, rat.
Description: as §2

Assay [5] has as its system human prostate cancer cell lines. In words: Quantitative RT-PCR of transcripts. It counts as cell-based.
Description: as §3

“Also recorded” adds a separate entry of the source. Like-named read-outs stand apart in the source and are kept apart here.

Take `CC1=C2C[C@H]3[C@@H](CC=C4C[C@@H](O)CC[C@@]43C)[C@@H]2CC[C@]12O[C@@H]1C[C@H](C)CN[C@H]1[C@H]2C` [cyclopamine]: the “Growth rate (% tumor volume/day)” value was determined as 9.2 ± 2.4 % tumor volume/day in assay [1] (i.p. 10 mg/kg) and 4.9 ± 1.0 % tumor volume/day in [1] (i.p. 50 mg/kg). Also, the “Median Survival” value was 19 days in [1] (i.p. 10 mg/kg/day), “No death” in assay [1] (i.p. 50 mg/kg), “No tumors” in assay [1] (s.c. 50 mg/kg) and “No tumors” in [2]. Further, the figures for the metastasis result in [1] (i.p. 10 mg/kg/day) and in assay [1] (i.p. 50 mg/kg/day) were “inhibited metastasis” and “blocked metastasis”, respectively. Further, in [1] (i.p. 10 mg/kg/day), the “time by which all animals were dead” value is on record as at most 26 days. Besides, in assay [1] (i.p. 50 mg/kg/day, 50 day treatment period), the death result is given as “prevented death”. For the same compound, the “time to complete regression of the tumors” value in the assay on 22RV1 xenograft tumors and in the assay on PC3 xenograft tumors was 20 to 24 days each time. The invasiveness result with 22RV1 cells is listed as “blocked”; with 22RV1-GLI cells it was “not affected”; with AT2.1-GLI cells it was “did not reduce the invasiveness”. Besides, in the assay with prostate epithelium (DHT plus cyclopamine 50 mg/kg/day s.c. for 10 days), the prostate regeneration result is given as “abolished prostate regeneration; also recorded: completely blocked prostate regeneration”. The Snail expression result with AT6.3 cells [3] (AT6.3 cells) is “suppressed”. For the same compound, the “expression of E-cadherin transcripts” value (in the assay with AT6.3 cells [3] (rat metastasis-derived prostate cancer cell line); in [5] (human metastasis-derived prostate cancer cell lines)) was “increased expression” throughout. Besides, the reduction of invasiveness result in the assay with AT6.3 cells [4] was “approximately nine-fold”. Further, in assay [5], the “expression of transcripts encoding c-myc” value is reported as “reduced expression”. Also, in assay [5], the “expression of transcripts encoding cyclin D1” value is “reduced expression”. In addition, the “transcription of the gene encoding Nestin” value in [5] is “suppressed transcription”. Further, in [5] (human prostate cancer cell lines), the “expression of Snail transcripts” value is “decreased expression”. In [5] (human prostate cancer cells), the “expression of the metastasis suppressor Ndrgl” value is on record as “increased expression”.
Turning to `C[C@]12CCC(=O)C[C@@H]1CC[C@@H]1[C@@H]2CC[C@]2(C)[C@@H](O)CC[C@@H]12` [dihydrotestosterone], in the assay on prostate epithelium (50 mg/kg/d for ten days after seven days of androgen withdrawal), the prostate regeneration result is reported as “re-growth of prostate of nearly normal size”.
